Measurements: ChEMBL document CHEMBL3881525, “Analogs of dehydrophenylahistins and their therapeutic use” (2007)
Values after ≈ are worked out from the molar mass of the structure shown. Active and inactive are the calls of the source. The calls are words filed in the database; no cut-off is given here.

How the values were obtained:
[1] = Cytotoxicity against human CCD-27Sk cells assessed as reduction in cell viability measured after 48 hrs by resazurin dye-based fluorometric analysis
[2] = test system: Trichophyton rubrum; assay: Fungicidal activity against Trichophyton rubrum isolate 2 measured after 48 hrs by broth dilution method; format: functional; details: isolate 2, 48 h
[3] = Toxicity in mouse allografted with mouse N202 tumor spheroids expressing H2B-GFP at 10 mg/kg, iv administered on day 12 as infusion for 5 mins; format: organism-based; details: in vivo
[4] = test system: Jurkat; assay: Induction of apoptosis in human Jurkat cells assessed as caspase3 activation; format: functional, cell-based
[5] = target: T1, Tubulin (Homo sapiens) (UniProt P68371+Q9H4B7+P0DPH7+P68366+Q13509+Q71U36+P04350+Q3ZCM7+P07437+P68363+Q9BQE3+Q6PEY2+Q13885+Q9BVA1+Q9BUF5); assay: Induction of microtubule instability in human MCF7 cells assessed as time spent for growth at IC50 for mitotic block measured after 20 hrs by immunofluorescence analysis; format: cell-based
[6] = test system: Mus musculus; assay: Antivascular activity against mouse N202 tumor spheroids expressing H2B-GFP allografted in mouse assessed as inhibition of tumor-induced central vasculature at 5 mg/kg, iv administered on day 12 as infusion for 2 mins measured on day 15 by fluorescence video microscopy; format: functional, organism-based
[7] = Antitumor activity against human HT-29 cells xenografted in nude mouse assessed as tumor growth inhibition at 10 mg/kg, ip administered every third day for 5 days in presence of CPT-11 relative to control; format: functional; details: HT-29, ip, 120 h, read-out: TGI
[8] = Antiproliferative activity against human mitoxantrone-resistant HL60/MX2 cells; format: functional, cell-based; details: HL-60
[9] = target: T1, Tubulin (Homo sapiens); assay: Induction of microtubule instability in human MCF7 cells assessed as rescue frequency at IC25 for mitotic block measured after 20 hrs by immunofluorescence analysis; format: cell-based
[10] = Antifungal activity against Epidermophyton floccosum isolate 2 measured after 48 hrs by broth dilution method; format: functional
[11] = target: Tyrosine-protein kinase Lyn (Mus musculus) (UniProt P25911); details: 10 uM
Sequence of Tyrosine-protein kinase Lyn (Mus musculus) (P25911 whole entry): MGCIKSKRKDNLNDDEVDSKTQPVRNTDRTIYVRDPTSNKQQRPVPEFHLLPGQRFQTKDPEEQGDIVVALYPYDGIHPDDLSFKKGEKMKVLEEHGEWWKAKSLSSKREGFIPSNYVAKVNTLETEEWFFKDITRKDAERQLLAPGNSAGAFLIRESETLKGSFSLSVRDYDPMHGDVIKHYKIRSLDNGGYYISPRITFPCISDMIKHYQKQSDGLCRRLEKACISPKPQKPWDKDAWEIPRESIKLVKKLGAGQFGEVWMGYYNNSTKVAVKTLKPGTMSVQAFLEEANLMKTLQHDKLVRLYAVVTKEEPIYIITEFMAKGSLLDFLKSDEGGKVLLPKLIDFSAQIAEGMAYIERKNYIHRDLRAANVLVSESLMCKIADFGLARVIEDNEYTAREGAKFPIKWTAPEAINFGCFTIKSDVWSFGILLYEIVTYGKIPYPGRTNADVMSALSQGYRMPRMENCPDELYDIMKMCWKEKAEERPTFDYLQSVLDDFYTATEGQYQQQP
Description: Inhibition of mouse Lyn at 10 uM in presence of ATP

[12] = target: T1, Tubulin (Homo sapiens); assay: Induction of microtubule dynamic instability in human MCF7 cells assessed as effect on spindle morphology at mitotic block IC25 measured after 20 hrs by immunofluorescence analysis; format: cell-based
[13] = target: T1, Tubulin (Homo sapiens); assay: Induction of microtubule dynamic instability in human MCF7 cells at IC50 for mitotic block measured after 20 hrs by immunofluorescence analysis; format: cell-based
[14] = target: T1, Tubulin (Homo sapiens); assay: Induction of microtubule depolymerization in human CCD-27Sk cells assessed as cell membrane blebbing at 2 uM measured after 30 mins; format: cell-based
[15] = test system: MCF7; assay: Antimitotic activity in human MCF7 cells assessed as mitotic index measured after 20 hrs by DAPI-staining based fluorescence microscopic analysis; format: functional, cell-based
[16] = Toxicity in mouse allografted with mouse N202 tumor spheroids expressing H2B-GFP at 10 mg/kg, iv administered on day 13 as infusion for 5 mins; format: organism-based; details: in vivo
[17] = test system: P22; assay: Induction of necrosis in rat P22 cells implanted in rat compound administered intraperitoneally measured after 24 hrs post dose; format: functional, cell-based
[18] = target: T1, Tubulin (Homo sapiens); assay: Induction of microtubule depolymerization in HUVEC at 2 uM measured after 30 mins; format: cell-based
[19] = test system: Jurkat; assay: Induction of apoptosis in human Jurkat cells assessed as PARP cleavage at 100 nM measured after 10 hrs by Western blotting; format: functional, cell-based
[20] = test system: HUVEC; assay: Induction of apoptosis in HUVEC assessed as cell shrinkage; format: functional, cell-based; details: Homo sapiens
[21] = test system: Rattus norvegicus; assay: Reduction in blood flow in rat brain at 15 mg/kg, ip measured after 24 hrs by [125I]iodoantipyrine based method relative to vehicle control; format: ADME, organism-based; details: in vivo
[22] = test system: MCF7; assay: Antimitotic activity in human MCF7 cells assessed as bipolar cells with uncompressed chromosomes at mitotic block IC50 measured after 20 hrs by immunofluorescence analysis relative to control; format: functional
[23] = Toxicity in mouse allografted with mouse N202 tumor spheroids expressing H2B-GFP assessed as effect on tumor surrounding vasculature in the dorsal skin fold at 5 mg/kg, iv administered on day 12 as infusion for 2 mins measured on day 15; format: organism-based; details: in vivo
[24] = Antifungal activity against Trichophyton rubrum isolate 2 measured after 48 hrs by broth dilution method; format: functional
[25] = Cytotoxicity against human MDA-MB-231 cells assessed as reduction in cell viability measured after 48 hrs by resazurin dye-based fluorometric analysis; format: functional; details: MDA-MB-231, 48 h
[26] = Antitumor activity against human MCF7 cells xenografted in nude mouse assessed as tumor growth inhibition at 7.5 mg/kg, ip qd administered every third day for 5 days in presence of CPT-11 relative to control; format: functional; details: 120 h, read-out: TGI
[27] = test system: Rattus norvegicus; assay: Reduction in blood flow in rat skin at 15 mg/kg, ip measured after 24 hrs by [125I]iodoantipyrine based method relative to vehicle control; format: ADME, organism-based; details: in vivo
[28] = Antitumor activity against human A549 cells xenografted in nude mouse assessed as tumor growth inhibition at 7.5 mg/kg, ip qd administered every third day for 5 days in presence of CPT-11 relative to control; format: functional; details: 120 h, read-out: TGI
[29] = test system: Jurkat; assay: Induction of apoptosis in human Jurkat cells assessed as DNA laddering at 1 nM by gel electrophoresis; format: functional, cell-based
[30] = target: T1, Tubulin (Homo sapiens); assay: Induction of microtubule instability in human MCF7 cells assessed as time spent for attenuation at IC50 for mitotic block measured after 20 hrs by immunofluorescence analysis; format: cell-based
[31] = Antiproliferative activity against taxol-sensitive human MES-SA cells […]; format: functional, cell-based
[32] = test system: Rattus norvegicus; assay: Effect on blood flow in rat spleen at 15 mg/kg, ip measured after 1 hr by [125I]iodoantipyrine based method relative to vehicle control; format: ADME, organism-based; details: in vivo
[33] = target: T1, Tubulin (Homo sapiens); assay: Time required for induction of microtubule dynamic instability in human MCF7 cells at IC25 for mitotic block measured after 20 hrs by immunofluorescence analysis; format: cell-based
[34] = target: T1, Tubulin (Homo sapiens); assay: Induction of microtubule instability in human MCF7 cells assessed as time spent for shortening at IC50 for mitotic block measured after 20 hrs by immunofluorescence analysis; format: cell-based
[35] = test system: HUVEC; assay: Induction of monolayer permeability in HUVEC assessed as colchicin transport at 2 uM measured up to 1 hr; format: functional, cell-based; details: Homo sapiens
[36] = Cytotoxicity against human OVCAR3 cells assessed as reduction in cell viability measured after 48 hrs by resazurin dye-based fluorometric analysis; format: functional; details: OVCAR-3, 48 h
[37] = Antifungal activity against Epidermophyton floccosum isolate 1 measured after 48 hrs by broth dilution method; format: functional
[38] = Toxicity in mouse allografted with mouse N202 tumor spheroids expressing H2B-GFP at 5 mg/kg, iv administered on day 12 as infusion for 2 mins; format: organism-based; details: in vivo
[39] = test system: Rattus norvegicus; assay: Reduction in blood flow in rat gut at 15 mg/kg, ip measured after 24 hrs by [125I]iodoantipyrine based method relative to vehicle control; format: ADME, organism-based; details: in vivo
[40] = test system: MDA-MB-231; assay: Antitumor activity against human MDA-MB-231 cells xenografted in nude mouse assessed as tumor growth inhibition at 7.5 mg/kg, ip administered thrice per day for 5 days in presence of paclitaxel relative to control; format: functional, organism-based
[41] = Antifungal activity against Trichophyton mentagrophytes isolate 1 measured after 48 hrs by broth dilution method; format: functional

CC(C)(C)c1[nH]cnc1/C=c1\[nH]c(=O)/c(=C/c2ccccc2)[nH]c1=O [PLINABULIN]
EC50 [1]: 9.2 nM
MFC [2]: 0.125 µg/mL (≈ 0.372 µM)
Activity [3]: Non-Toxic
Activity [4]: Dose-dependent effect
Activity [5]: 33%
TIME [5]: 0.005 h
inhibition [6]: Active
inhibition in vivo at 10 mg/kg [7]: 65.8 to 83.3%
EC50 [8]: 8.17 nM
Activity [9]: 2.79 min⁻¹
MIC [10]: > 16 µg/mL
inhibition [11]: > 50%
Activity [12]: Active
Activity [13]: 10.6 um/min
Activity [14]: Active
inhibition [15]: Dose-dependent effect
Activity [16]: Non-Toxic
Activity [17]: Dose-dependent effect
Activity [18]: Active
Activity [19]: Active
Activity [20]: Active
Activity [21]: Toxic
Activity [22]: Active
Activity [23]: Non-Toxic
MIC [24]: < 0.03 µg/mL
EC50 [25]: 13.8 nM
inhibition in vivo at 7.5 mg/kg [26]: 26 to 81%
Activity [27]: Toxic
inhibition in vivo at 7.5 mg/kg [28]: 74%
Activity [29]: Active
TIME [30]: 0.0102 h
EC50 [31]: 8.5 to 34 nM
Activity [32]: Non-Toxic
TIME [33]: 0.728 h
Activity [34]: 20.9%
TIME [34]: 0.00367 h
Activity [35]: Active
EC50 [36]: > 20000 nM
MIC [37]: > 16 µg/mL
Activity [38]: Non-Toxic
Activity [39]: Toxic
TGI [40]: Active
MIC [41]: 2 µg/mL (≈ 5.95 µM)
